Assay results from US20230127839A1, “COMPOUNDS AND COMPOSITIONS FOR TREATING CONDITIONS ASSOCIATED WITH STING ACTIVITY” (IFM Due, Inc., priority 2019, published 2023).

Target: T1, hSTING (Homo sapiens, UniProt Q86WV6, G230A/H232R/R293Q/R71H)
T1 construct: host or cells: THP1-Dual KO-IFNAR2 cells
Assay: STING reporter assay (luciferase) in THP1-Dual KO-IFNAR2 cells stimulated with 2'3'cGAMP
Format: cell-based
Settings: 2'3'cGAMP 15 μM, 24 h, luciferase reporter activity
How it was run: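 THP1-Dual KO-IFNAR2 cells (2×10E6 cells/mL) exposed to compounds at 0.0017-100 μM final, then stimulated with 2′3′cGAMP (15 μM final) delivered by Lipofectamine 2000 transfection. After 24 h at 37° C, secreted luciferase in supernatant read by QUANTI-Luc luminescence; EC50 calculated.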

T1 sequence (Q86WV6 whole entry R71H/G230A/H232R/R293Q): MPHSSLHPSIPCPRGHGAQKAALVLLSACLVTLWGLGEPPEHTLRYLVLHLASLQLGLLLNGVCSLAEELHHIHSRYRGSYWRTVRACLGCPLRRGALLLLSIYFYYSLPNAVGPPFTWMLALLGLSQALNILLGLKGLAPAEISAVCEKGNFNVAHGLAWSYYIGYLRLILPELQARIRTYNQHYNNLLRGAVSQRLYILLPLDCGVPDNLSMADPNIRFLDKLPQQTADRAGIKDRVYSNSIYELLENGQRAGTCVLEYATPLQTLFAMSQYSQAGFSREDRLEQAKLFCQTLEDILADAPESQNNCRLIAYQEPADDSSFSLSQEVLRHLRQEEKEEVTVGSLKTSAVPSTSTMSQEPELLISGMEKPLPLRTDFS

| EC50 [nM] | SMILES |
| --- | --- |
| 200 to 1000 | O=C(Nc1ccc(C2CC(F)(F)C2)c(F)c1)Nc1c[nH]c2ccccc12 [Compound 282, 1-(4-(3,3-difluorocyclobutyl)-3-fluorophenyl)-3-(1H-indol-3-yl)urea] |
| 40 to 200 | O=C(Nc1cnc(C2CC(F)(F)C2)c(Cl)c1)Nc1c[nH]c2ccccc12 [Compound 283, 1-(5-chloro-6-(3,3-difluorocyclobutyl)pyridin-3-yl)-3-(1H-indol-3-yl)urea] |
| 40 to 200 | C[C@@H]1CN(c2ncc(NC(=O)Nc3c[nH]c4ccc(Cl)cc34)cc2Cl)CCN1C(=O)OC(C)(C)C [Compound 284, tert-butyl(R)-4-(3-chloro-5-(3-(5-chloro-1H-indol-3-yl)ureido)pyridin-2-yl)-2-methylpiperazine-1-carboxylate] |
| 40 to 200 | O=C(Nc1cnc(N2CC3CCC(C2)O3)c(Cl)c1)Nc1c[nH]c2ccc(Cl)cc12 [Compound 285, 1-(6-(8-oxa-3-azabicyclo[3.2.1]octan-3-yl)-5-chloropyridin-3-yl)-3-(5-chloro-1H-indol-3-yl)urea] |
| 40 to 200 | C[C@H]1CN(c2ncc(NC(=O)Nc3c[nH]c4ccc(Cl)cc34)cc2Cl)C[C@H](C)O1 [Compound 286, 1-(5-chloro-1H-indol-3-yl)-3-(5-chloro-6-((2S,6S)-2,6-dimethylmorpholino)pyridin-3-yl)urea] |
| 40 to 200 | O=C(Nc1cc(Cl)c(C2CCC(F)(F)CC2)cn1)Nc1c[nH]c2ccc(F)cc12 [Compound 287, 1-(4-chloro-5-(4,4-difluorocyclohexyl)pyridin-2-yl)-3-(5-fluoro-1H-indol-3-yl)urea] |
| 5000 to 100000 | C[C@@H]1CN(c2ncc(NC(=O)Nc3c[nH]c4ccc(Cl)cc34)cc2Cl)C[C@H](C)N1 [Compound 288, 1-(5-chloro-1H-indol-3-yl)-3-(5-chloro-6-(cis-3,5-dimethylpiperazin-1-yl)pyridin-3-yl)urea] |
| 5000 to 100000 | C[C@H]1CN(c2ncc(NC(=O)Nc3c[nH]c4ccc(Cl)cc34)cc2Cl)C[C@H](C)N1 [Compound 289, 1-(5-chloro-1H-indol-3-yl)-3-(5-chloro-6-((3S,5S)-3,5-dimethylpiperazin-1-yl)pyridin-3-yl)urea] |
| 40 to 200 | CC1(C)CN(c2ncc(NC(=O)Nc3c[nH]c4cc(F)c(F)cc34)cc2F)CCO1 [Compound 290, 1-(5,6-difluoro-1H-indol-3-yl)-3-(6-(2,2-dimethylmorpholino)-5-fluoropyridin-3-yl)urea] |
| 1000 to 5000 | C[C@@H]1CN(c2ncc(NC(=O)Nc3c[nH]c4ccc(Cl)cc34)cc2Cl)C[C@@H](C)N1 [Compound 291, 1-(5-chloro-1H-indol-3-yl)-3-(5-chloro-6-((3R,5R)-3,5-dimethylpiperazin-1-yl)pyridin-3-yl)urea] |
| 40 to 200 | O=C(Nc1cnc(N2CCC(F)(F)CC2)c(F)c1)Nc1c[nH]c2ccc(Cl)cc12 [Compound 292, 1-(5-chloro-1H-indol-3-yl)-3-(6-(4,4-difluoropiperidin-1-yl)-5-fluoropyridin-3-yl)urea] |
| 40 to 200 | C[C@@H]1CN(c2ncc(NC(=O)Nc3c[nH]c4ccc(Cl)cc34)cc2Cl)C[C@H](C)O1 [Compound 293, 1-(5-chloro-1H-indol-3-yl)-3-(5-chloro-6-((2S,6R)-2,6-dimethylmorpholino)pyridin-3-yl)urea] |
| 40 to 200 | CC1(C)OCC(c2ncc(NC(=O)Nc3c[nH]c4ccc(Cl)cc34)cc2Br)CO1 [Compound 294, 1-(5-bromo-6-(2,2-dimethyl-1,3-dioxan-5-yl)pyridin-3-yl)-3-(5-chloro-1H-indol-3-yl)urea] |
| 40 to 200 | O=C(Nc1cnc(C2CCC(F)(F)CC2)c(F)c1)Nc1c[nH]c2ccc(Cl)cc12 [Compound 295, 1-(5-chloro-1H-indol-3-yl)-3-(6-(4,4-difluorocyclohexyl)-5-fluoropyridin-3-yl)urea] |
| 1000 to 5000 | C[C@H]1CN(c2ncc(NC(=O)Nc3c[nH]c4ccc(Cl)cc34)cc2Cl)CCN1 [Compound 296, (S)-1-(5-chloro-1H-indol-3-yl)-3-(5-chloro-6-(3-methylpiperazin-1-yl)pyridin-3-yl)urea] |
| 40 to 200 | O=C(Nc1cnc(C2CCN(CC(F)(F)F)CC2)c(Cl)c1)Nc1c[nH]c2ccc(Cl)cc12 [Compound 297, 1-(5-chloro-1H-indol-3-yl)-3-(5-chloro-6-(1-(2,2,2-trifluoroethyl)piperidin-4-yl)pyridin-3-yl)urea] |
| 40 to 200 | CC1(C)CN(c2ncc(NC(=O)Nc3c[nH]c4ccc(Cl)cc34)cc2Cl)CCO1 [Compound 298, 1-(5-chloro-1H-indol-3-yl)-3-(5-chloro-6-(2,2-dimethylmorpholino)pyridin-3-yl)urea] |
| 40 to 200 | O=C(Nc1ccc(C2CCC2)cc1)Nc1c[nH]c2ccc(Cl)cc12 [Compound 300, 1-(5-chloro-1H-indol-3-yl)-3-(4-cyclobutylphenyl)urea] |
